The source of these data is patent US9359451B2, “Methods and compositions for treating trauma-hemorrhage using estrogen and derivatives thereof” (THE UAB RESEARCH FOUNDATION, priority 2012, dated 2016).

One data set deals with Male SD rats. As to the kind of experiment: Survival and blood pressure after trauma-hemorrhage with 60% blood loss and no fluid resuscitation. To be noted: FIG. 21; trauma and major blood loss, crystalloid resuscitation after initial 3-hour interval; all untreated controls died within 3 hours. Type of data set: in vivo, rat. The protocol:
16 rats were subjected to 60% removal of blood volume, using the same protocol found in Example 5.
Furthermore, crystalloid fluid resuscitation was administered following an initial 3-hour interval after the trauma and major blood loss, and rats were followed for 7 days. It has been observed that rats which survive for the initial 3 hours uniformly go on to survive for prolonged period of time and were then sacrificed. The survival rate is 68% for estrogen-treated rats, while all untreated control rats have died within the initial 3-hour interval (see FIG. 21).
Although E2 administration after trauma-hemorrhage (T-H) and fluid resuscitation produces salutary effects on organ functions, it was not known if E2 has any beneficial effects after major blood loss in the absence of fluid resuscitation. Male SD rats ˜250 g) underwent T-H (tissue trauma, BP 40 mmHg in 10 min and maintained at that BP by further blood withdrawal until maximum bleed out (MBO, 60% of total blood volume) occurred (45:t5 min)). E2 i.v. (1 mg/Kg, 0.4 ml/Kg volume, i.e., 120 μL/300 g body weight) or vehicle (cyclodextrin, CD) was then infused. No additional fluid was given for 3 hours. If rats survived, they received Ringer's lactate, 4× the MBO volume. A custom-fabricated 31p coil was placed on the surface of the rat's liver after laparotomy in another group, and spectra acquired using 4.7T NMR spectroscopy via a 31p coil in real time before and during hemorrhagic shock. Shock increased phosphomonoester and Pi with a concomitant decrease in β-ATP in both groups.

For data set [1], the system named is mean arterial blood pressure (MAP). The experiment in a line: Mean arterial blood pressure spike after iv administration in hemorrhaged rats. Type of data set: in vivo, rat. To be noted: for “spike” in mean arterial blood pressure (MAP) just after administration: rapid iv injection in ~1 min at MBO. The source says:
An additional practical matter to be resolved was removing or dampening the ever-present “spike” in mean arterial blood pressure (MAP) observed just after administration of EE-3-SO4, which was also observed with E2-CD and E2-SO4. Because this could be a threat to the hemorrhage patient by having this transient pressure rise destabilize and eject nascent hemostatic “plugs” in damaged vessels, a solution was developed for the potential problem. By giving the iv bolus of […] in a slightly longer interval over 5 min starting at MBO rather than a more rapid injection in ˜1 min (i.e., a “slow push”), the benefits of EE-3-SO4 remained while the MAP “spike” was removed. To determine the maximum reduction in the blood pressure spike studies were further conducted with a push over a 10 min period.

The subject of another data set is injured brain. As to the kind of experiment: Traumatic brain injury: FDG-PET/CT, diffusion tensor imaging and MRI edema. In kind it is in vivo, rat. The conditions noted are these: FIG. 43; day 1 and day 7 vs saline vehicle. The protocol:
(§1) In a second experiment, the efficacy of E2-SO4 treatment for TBI in a lateral fluid percussion (LFP) model was examined. This involved 6 groups of rats (n=5/group). All rats received a craniectomy. Groups 1, 2, 4 and 5 received LFP injury. Groups 1 and 4 were treated with E2 (1 mg/kg) 1 hr post-injury, groups 2 and 5 were vehicle (Veh)-treated and groups 3 and 6 were sham. Groups 1-3 underwent intracranial pressure (ICP), cerebral perfusion pressure (CPP) and partial oxygen pressure (pbtO2) monitoring. Groups 4-6 underwent fludoexoyglucose (FDG)-PET/CT and diffusion tensor imaging (DTI) analysis on days 1 and 7 post-induction. Relative standard uptake values (SUV) of upper half of brain to central value, fractional anisotropy (FA) and apparent diffusion coefficient (ADC) maps were calculated.
Rats were either treated with E2 or a saline vehicle control, where treatment is administered 1 hour after injury. […] The former is the area of deranged nerves, while the latter constitutes intact nerves.

Data set [2] concerns Sprague-Dawley adult male rats. The experiment in a line: Traumatic brain injury (lateral fluid percussion): ICP, CPP and pbtO2 monitoring. In kind it is in vivo, rat. To be noted: for intracranial pressure vs untreated vehicle controls: FIG. 44, measured over a 120 min period. On the procedure: Sprague-Dawley adult male rats were divided into 4 groups: vehicle, E2-SO4 (1 mg/kg), sham+vehicle and sham+E2-SO4; n=5/group. The TBI model was lateral fluid percussion injury (LFP), induced via a hydraulic pressure pulse to the anesthetized rat's exposed brain. This was introduced through a burr hole in the lateral skull prepared one day prior to LFP. A single iv dose of E2-SO4 or saline vehicle was administered 1 hr after LFP. Physiological parameters were measured 24 hr post-injury.
as §1
FIG. 48B is a plot of cerebral perfusion pressure, which is a derivative of mean arterial pressure less ICP. […] The X axis is shown for an extended 2 hours to confirm stability for the various probes used.
The clinical manifestation of edema after TBI can be seen as increased intracranial pressure, with lower brain perfusion pressure and reduced oxygen tension. […] FIG. 44 compares treatments for TBI with hormones, measured over a 120 min period to control the effects of the invasive probe on pressures. The treatments are progesterone (T+progesterone: magenta), progesterone plus E2-SO4 (T+E+P: brown), E2-SO4 (T+E2SO4: red) and EE-3-SO4 (T+EE-3SO4: yellow).

The subject of a further data set is Male Sprague Dawley rats. As to the kind of experiment: 6 hour survival after soft tissue trauma and 60% hemorrhage without resuscitation. To be noted: for survival from 60% blood loss: FIG. 47, 6 hour interval after MBO, all saline vehicle controls died; for survival from 60% blood loss / survival percentage for 6 hr: no resuscitation. In kind it is in vivo, rat. On the procedure: Note that experimental conditions were sufficiently stringent that all saline vehicle control hemorrhaged rats died. The number of subject rats was vehicle control-20, E2-SO4-21, and EE3-SO4-20. Note that the time to begin the 6 hour interval starts after the maximum bleed out (MBO). It takes approximately 45 minutes to attain the MBO. Also please note that no resuscitation is given for the duration of the 6 hour test.
Survival studies with ethinyl 17α-estradiol-3-sulfate (EE3-SO4) in rats subjected to soft tissue trauma and 60% hemorrhage were performed as has been described for E2-SO4 and E2-cyclodextrin. Briefly, Male Sprague Dawley rats were anesthetized with isoflurane and received a 5 cm laparotomy. Cannulation was performed of 2 femoral arteries (one for bleeding and the one for blood pressure monitoring) and one femoral vein to administer drug or saline. Rats were bled to 62.9% total blood volume within 45 min with a mean arterial blood pressure of 40 mmHg achieved in 10 min and maintained at the pressure throughout the bleeding procedure. At the point of maximum bleed out (MBO), estrogen compounds were administered. Survival was monitored for 6 hours following MBO.
The optimum dose of EE-3-SO4 to promote rat survival for 6 hr was determined. The doses of 0.1 mg/kg (n=6), 0.3 mg/kg (n=6), 1.0 mg/kg (n=7) and 3.0 mg/kg (n=6) were used. The respective survival percentages were 16%, 50%, 87% and 50%, respectively (FIG. 41). Vehicle controls were matched for each group and the numbers of test rats were identical as well. No vehicle controls of any group survived for 6 hr (i.e., 100% death).

In another data set the test system is isolated vascular rings. The experiment in a line: Vascular reactivity of isolated vascular rings in a physiological bath. Also on record: species or system rat or pig. On the procedure:
Data to delineate the mechanism of action for EE-3-SO4 vis-à-vis effects on the cardiovascular system was acquired. While it is well known that estrogens act on the vascular system by a variety of mechanisms including vasorelaxation per se, specific confirmation of this fact for EE-3-SO4 was needed. […] Vessels are contracted by a variety of agents (i.e., endothelin-1, phenylephrine). The action(s) are measured with a force transducer and recorded digitally. […] (see FIG. 42).

estrogen came in with a survival rate with Male SD rats of 68%.

For the compound `C[C@]12CC[C@@H]3c4ccc(OS(=O)(=O)O)cc4CC[C@H]3[C@@H]1CC[C@@H]2OS(=O)(=O)O` [E2-SO4, 17-β-estradiol 3, 17 disulfate], the ““spike” in mean arterial blood pressure (MAP) just after administration” value in data set [1] is recorded as “also observed”. Further, the “edema in the injured brain” value in the data set on injured brain was “can reduce edema in the injured brain”. Besides, in data set [2], the “intracranial pressure vs untreated vehicle controls” value was “greatly reduce the pressure”. For the same compound, the “pbtO2 (brain tissue oxygen partial pressure)” value in data set [2] (TBI (LFP), 1 mg/kg iv 1 hr after injury, 24 hr post-injury, vehicle 15.8±1.3, sham 39.6) is on record as 34.1±1.6 mmHg. The “ICP (intracranial pressure)” value in data set [2] (TBI (LFP), 1 mg/kg iv 1 hr after injury, measured 24 hr post-injury, TBI vehicle 17.4±0.5, sham 4.7) was found to be 7±0.4 mmHg. Also, in the data set with Male Sprague Dawley rats, the “survival from 60% blood loss” value came to 66%.

Take `CN[C@@H](CCCNC(=N)N)C(=O)O` [methyl arginine]: the “antagonism of EE-3-SO4's vessel relaxation” value in the data set with isolated vascular rings (antagonist added to EE-3-SO4) is “relaxation can be inhibited”.

Turning to `C#C[C@]1(O)CC[C@H]2[C@@H]3CCc4cc(OS(=O)(=O)O)ccc4[C@H]3CC[C@@]21C` [EE-3-SO4, ethinyl 17α-estradiol-3-sulfate], the “potency on a molar equivalent basis” value in the data set with isolated vascular rings (FIG. 42, compared with E2-SO4) was “more potent than E2-SO4”. The “range of doses with linear response in promoting vessel relaxation” value in the data set with isolated vascular rings (vessels contracted by endothelin-1 or phenylephrine, Kreb's buffer) lay in the range of 10 to 100000 nM. The “reduction in the blood pressure spike with slow push” value in data set [1] (iv bolus over 5 min starting at MBO, no further benefit at 10 minutes) is “complete reduction at 5 minutes”. Moreover, in data set [1], the ““spike” in mean arterial blood pressure (MAP) just after administration” value is listed as “observed”. Further, the “edema in the injured brain” value in the data set with injured brain is recorded as “can reduce edema in the injured brain”. Moreover, the “intracranial pressure vs untreated vehicle controls” value in data set [2] is recorded as “greatly reduce the pressure”. Also, the “survival percentage for 6 hr” value in the data set on Male Sprague Dawley rats (0.1 mg/kg at MBO, no vehicle controls survived) was 16%; with Male Sprague Dawley rats (0.3 mg/kg at MBO) it was 50%; in the data set on Male Sprague Dawley rats (1.0 mg/kg at MBO), 87%; with Male Sprague Dawley rats (3.0 mg/kg at MBO), 50%. Also, the “survival from 60% blood loss” value is reported as 80% in the data set with Male Sprague Dawley rats and “exhibits enhanced survival as compared to E2-sulfate” with Male Sprague Dawley rats (listed as EE3-SO4). The “optimum dose to promote rat survival for 6 hr” value in the data set with Male Sprague Dawley rats (doses 0.1, 0.3, 1.0 and 3.0 mg/kg tested) was determined as 1.0 mg/kg.

For `CC(=O)[C@H]1CC[C@H]2[C@@H]3CCC4=CC(=O)CC[C@]4(C)[C@H]3CC[C@]12C` [progesterone], the “intracranial pressure vs untreated vehicle controls” value in data set [2] was “greatly reduce the pressure”.
